In patent US20130150399A1, “INHIBITORS OF THE UNFOLDED PROTEIN RESPONSE AND METHODS FOR THEIR USE” (The Board of Trustees of the Leland Stanford Junior …, priority 2006, published 2013):

What was measured:
[1] = test system: HT1080 s.c. tumor xenografts; assay type: in vivo
Description: Female 4-6 week-old SCID (B6.CB 17) mice supplied by Stanford University Animal Facility were housed in the same facility (American Association of Laboratory Animal Care-approved) with 12 hour light cycles. Food and water were provided ad libitum. All experiments were approved by the institutional care and use committee. The potential toxicities of irestatin 9389 were examined in SCID mice injected i.p. once daily over 4 consecutive days with increasing doses of irestatin 9389 or vehicle control. […] For xenografts, 2×10^6 HT1080 fibrosarcoma cells were resuspended in 50-75 μl PBS and injected s.c. in the dorsal flanks of host mice. When the implanted tumors reached a mean volume of ˜150 mm^3, mice were randomly assigned into different treatment groups. Mice were dosed by i.p. bolus injection with either vehicle (50% DMSO, 20% cremophor EL, 30% ethanol) or irestatin 9389 (50 mg/kg). Tumors (6-8 per group) were measured every 2-4 days with calipers. Tumor volume was calculated using the formula [(W^2×L) 0.52] where W=width and L=length.
A. Irestatin 9389 impairs IRE1α activity in implanted tumor xenografts. Equal numbers (2×10^6) of XBP-luciferase or CMV-luciferase reporter cells were implanted s.c. into SCID mice. After one week, mice were treated with irestatin 9389 (50 mg/kg), followed by optical bioluminescence imaging. B. Inhibition of tumor growth by irestatin 9389. HT1080 s.c. tumor xenografts were established in SCID mice and allowed to reach a mean volume of 150 mm^3 before treatment. Irestatin 9389 (50 mg/kg) or vehicle control was administered q 2d by i.p. injection and continued for 2 weeks, for a total of 6 doses. Tumor volumes were calculated based on caliper measurements taken every 3-5 days. Data points represent the mean volume calculated from at least 7 tumors per group, with SEM shown in one direction. Mean mouse weights+/−SEM are shown in bottom graph. C.
Next, we tested if treatment with irestatin 9389 could have a direct impact on tumor growth. […]

P58^IPK, DER-1 = experiment: Northern blot of XBP-1s transcription targets, HT1080 cells; assay type: cell-based, human; conditions: 2 μM; Tm or hypoxia 24 hours
Description: Cells were cultured in 10 cm plates, harvested, and total RNA recovered with Trizol (Invitrogen, San Diego, Calif.). Total RNA (10 μg) was resolved on a 1% agarose-formaldehyde gel. ^32P-labeled probes were prepared using the Rediprime II random-prime labeling kit (GE-Amersham, Buckinghamshire, UK). The primers used to PCR amplify probes are as follows. P58^IPK: 5′[…] 3′ (SEQ ID NO: 4); 5′ […] 3′ (SEQ ID NO: 5). DER-1: 5′ […] 3′ (SEQ ID NO: 6); 5′[…] 3′ (SEQ ID NO: 7). Blots were incubated with probe overnight, washed three times in 2×SSC/0.2% SDS, dried, and exposed to a phosphorimager screen overnight. Images were analyzed using ImageQuant software (Molecular Dynamics).
A. XBP-luciferase reporter construct. Firefly luciferase was inserted downstream of the IRE1α splice site in human XBP-1 to enable the conditional translation of luciferase under ER stress in an IRE1α-dependent manner. […] After 24 hours, luciferase activity was analyzed in an automated plate reader. For each cell line, values are expressed as the percent inhibition of the median for Tm/Tg-treated wells, corrected for background. […] Values are expressed as the fold increases over uninduced levels. […] Cells were harvested, lysed, and analyzed by immunoblotting with antisera specific for HIF-1α (top), XBP-1s (middle) or actin (bottom). […] Total RNA was analyzed by Northern blotting using radiolabeled probes specific for P58^IPK or DER-1. […]

Cc1csc(NC(=O)CSc2nc3c(c(C(F)(F)F)c2C#N)CCC3)n1 [Compound 9389]
antitumor effects ([1]; 50 mg/kg i.p. every other day, 6 doses): significant cytostatic antitumor effects | mean tumor volume ([1]; 50 mg/kg i.p. every other day, 6 doses, one week after the last treatment, P<0.01): 480+/−210 mm^3 | weight loss compared to vehicle-treated mice ([1]; mouse, in vivo): did not exhibit significant long-term weight loss | induction of P58^IPK and DER-1 expression (P58^IPK, DER-1): fully inhibited this response
